Laboratory results published in patent US9981951B2, “Crystalline and amorphous forms of Olaparib” (Olon S.P.A., priority 2015, dated 2018).

Columns and labels:
Assay type in all cases: physicochemical
[1] = stability of the solid form (air, moisture, heat)
[2] = solubility in various organic solvents and in water; details: compared with crystalline forms A and L of Olaparib
[3] = hygroscopicity

solubility in various organic solvents and in water [2] | hygroscopicity [3] | stability if exposed to the moisture in the air ([1]; exposed to the moisture in the air) | Compound | stability to air and heat ([1]; air and heat, long time (30 days)) | stability when exposed to a water-saturated environment ([1]; water-saturated environment)
 |  |  | O=C(c1cc(Cc2n[nH]c(=O)c3ccccc23)ccc1F)N1CCN(C(=O)C2CC2)CC1 [4-[3-(4-cyclopropanecarbonyl-piperazine-1-carbonyl)-4-fluorobenzyl]-2H-phthalazin-2-one] | stable to air and heat for a long time (30 days) | maintains its original physicochemical characteristics
better solubility | not hygroscopic | stable | O=C(c1cc(Cc2n[nH]c(=O)c3ccccc23)ccc1F)N1CCN(C(=O)C2CC2)CC1 [amorphous form of Olaparib, 4-[3-(4-cyclopropanecarbonyl-piperazine-1-carbonyl)-4-fluorobenzyl]-2H-phthalazin-2-one] |  | 
